Laboratory results reported in patent publication US12011444B2, “N-substituted indole derivatives as PGE2 receptor modulators” (Idorsia Pharmaceuticals Ltd, priority 2015, dated 2024).

Key:
PTGER2 (EP2) = PTGER2 (EP2) (Homo sapiens (Human), UniProt P43116); assay: hEP2 b-arrestin assay (PathHunter HEK 293 PTGER2 b-arrestin cells); format: cell-based; settings: antagonistic activity on hEP2; mean where measured multiple times
Procedure, shortened: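 HEK293 cells expressing ProLink-tagged EP2 and EA-fused β-arrestin 2 (enzyme fragment complementation) were seeded 24 h, pre-incubated with compound 15 min at 37 °C, then stimulated with 5 μM PGE2 (final) for 120 min.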

PTRGER4 (EP4) = PTRGER4 (EP4) (Homo sapiens (Human), UniProt P35408); assay: hEP4 b-arrestin assay (PathHunter HEK 293 PTGER4 b-arrestin cells); format: cell-based; settings: antagonistic activity on hEP4; mean where measured multiple times
Procedure, shortened: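 Stably transfected HEK293 cells carrying EP4–ProLink and β-arrestin 2–EA (β-gal fragment complementation), pre-incubated with compound 15 min at 37 °C, then stimulated with PGE2 (20 nM final) for 120 min at 37 °C. Chemiluminescence read after 1 h detection reagent at room temperature; activity per concentration expressed as percent of DMSO control.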

PTGER2 (EP2), sequence (P43116 whole entry, the tested form may be a part): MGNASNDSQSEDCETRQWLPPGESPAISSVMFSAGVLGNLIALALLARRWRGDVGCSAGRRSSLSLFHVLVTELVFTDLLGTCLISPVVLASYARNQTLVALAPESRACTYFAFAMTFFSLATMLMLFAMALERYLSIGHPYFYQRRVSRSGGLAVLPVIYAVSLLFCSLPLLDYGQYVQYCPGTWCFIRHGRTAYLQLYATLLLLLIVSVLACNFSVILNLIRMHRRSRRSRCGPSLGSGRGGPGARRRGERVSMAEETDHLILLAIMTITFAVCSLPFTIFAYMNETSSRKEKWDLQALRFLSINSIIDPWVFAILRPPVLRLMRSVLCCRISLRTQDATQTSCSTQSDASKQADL
PTRGER4 (EP4), sequence (P35408 whole entry, looked up, the tested form may be a part): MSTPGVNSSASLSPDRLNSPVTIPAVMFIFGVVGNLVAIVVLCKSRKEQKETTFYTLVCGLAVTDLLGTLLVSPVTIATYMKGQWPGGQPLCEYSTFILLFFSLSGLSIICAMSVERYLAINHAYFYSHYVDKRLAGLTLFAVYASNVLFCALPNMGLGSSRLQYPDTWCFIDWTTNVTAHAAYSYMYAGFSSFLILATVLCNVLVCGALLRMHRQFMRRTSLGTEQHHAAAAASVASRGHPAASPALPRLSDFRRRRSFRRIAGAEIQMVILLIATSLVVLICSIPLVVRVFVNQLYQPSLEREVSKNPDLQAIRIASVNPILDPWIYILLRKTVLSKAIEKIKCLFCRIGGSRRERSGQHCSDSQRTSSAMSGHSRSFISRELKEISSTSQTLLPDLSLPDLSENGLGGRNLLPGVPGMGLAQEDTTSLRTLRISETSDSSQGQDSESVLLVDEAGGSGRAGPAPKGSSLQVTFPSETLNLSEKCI

IC50 (PTGER2 (EP2)) [nM] | IC50 (PTRGER4 (EP4)) [nM] | SMILES
96 | 288 | Cc1cc(-c2cc(NCCn3c(C)cc4c(C)ccc(F)c43)ncn2)ccc1S(N)(=O)=O [compound 135]
5 | 48 | CNc1cc(-c2cc(NCCn3c(C)cc4c(C)ccc(F)c43)ncn2)ccc1C(=O)O [compound 136, 4-{6-[2-(7-Fluoro-2,4-dimethyl-indol-1-yl)-ethylamino]-pyrimidin-4-yl}-2-methylamino-benzoic acid]
2 | 897 | CCNc1cc(-c2cc(NCCn3c(C)cc4cccc(Cl)c43)ncn2)ccc1C(=O)O [compound 137, 4-{6-[2-(7-Chloro-2-methyl-indol-1-yl)-ethylamino]-pyrimidin-4-yl}-2-ethylamino-benzoic acid]
7 | 567 | CCOc1cc(-c2cc(NCCn3c(C#N)cc4ccccc43)ncn2)ccc1C(=O)O [compound 138, 4-{6-[2-(2-Cyano-indol-1-yl)-ethylamino]-pyrimidin-4-yl}-2-ethoxy-benzoic acid]
28 | 939 | COc1cccc2c1cc(C)n2CCNc1cc(-c2ccc(S(N)(=O)=O)c(C)c2)ncn1 [compound 139, 4-{6-[2-(4-Methoxy-2-methyl-indol-1-yl)-ethylamino]-pyrimidin-4-yl}-2-methyl-benzenesulfonamide]
11 | 476 | Cc1cccc2c1cc(C)n2CCNc1cc(-c2ccc(C(=O)O)c(CC(C)C)c2)ncn1 [compound 140, 4-{6-[2-(2,4-Dimethyl-indol-1-yl)-ethylamino]-pyrimidin-4-yl}-2-isobutyl-benzoic acid]
20 | 992 | CSc1cc(-c2cc(NCCn3c(C)cc4c(Cl)ccc(Cl)c43)ncn2)cc(F)c1C(=O)O [compound 141, 4-{6-[2-(4,7-Dichloro-2-methyl-indol-1-yl)-ethylamino]-pyrimidin-4-yl}-2-fluoro-6-methylsulfanyl-benzoic acid]
16 | 588 | CSc1cc(-c2cc(NCCn3c(C)cc4c(Cl)ccc(Cl)c43)ncn2)cc(Cl)c1C(=O)O [compound 142, 2-Chloro-4-{6-[2-(4,7-dichloro-2-methyl-indol-1-yl)-ethylamino]-pyrimidin-4-yl}-6-methylsulfanyl-benzoic acid]
5 | 658 | CCCc1cc(-c2cc(NCCn3c(C)cc4c(F)ccc(Cl)c43)ncn2)ccc1C(=O)O [compound 143, 4-{6-[2-(7-Chloro-4-fluoro-2-methyl-indol-1-yl)-ethylamino]-pyrimidin-4-yl}-2-propyl-benzoic acid]
3 | 658 | CCCc1cc(-c2cc(NCCn3c(C)cc4c(F)ccc(F)c43)ncn2)ccc1C(=O)O [compound 144, 4-{6-[2-(4,7-Difluoro-2-methyl-indol-1-yl)-ethylamino]-pyrimidin-4-yl}-2-propyl-benzoic acid]
8 | 302 | CCCc1cc(-c2cc(NCCn3c(C)cc4cc(F)cc(F)c43)ncn2)ccc1C(=O)O [compound 145, 4-{6-[2-(5,7-Difluoro-2-methyl-indol-1-yl)-ethylamino]-pyrimidin-4-yl}-2-propyl-benzoic acid]
8 | 334 | CCSc1cc(-c2cc(NCCn3c(C)cc4c(C)ccc(Cl)c43)ncn2)ccc1C(=O)O [compound 146, 4-{6-[2-(7-Chloro-2,4-dimethyl-indol-1-yl)-ethylamino]-pyrimidin-4-yl}-2-ethylsulfanyl-benzoic acid]
16 | 109 | CCCc1cc(-c2cc(NCCn3c(C)cc4c(C)ccc(F)c43)ncn2)ccc1C(=O)O [compound 147, 4-{6-[2-(7-Fluoro-2,4-dimethyl-indol-1-yl)-ethylamino]-pyrimidin-4-yl}-2-propyl-benzoic acid]
7 | 943 | Cc1cc2cccc(F)c2n1CCNc1cc(-c2ccc(C(=O)O)c(CC(C)C)c2)ncn1 [compound 148, 4-{6-[2-(7-Fluoro-2-methyl-indol-1-yl)-ethylamino]-pyrimidin-4-yl}-2-isobutyl-benzoic acid]
10 | 605 | CCSc1cc(-c2cc(NCCn3c(C)cc4c(Cl)ccc(Cl)c43)ncn2)ccc1C(=O)O [compound 149, 4-{6-[2-(4,7-Dichloro-2-methyl-indol-1-yl)-ethylamino]-pyrimidin-4-yl}-2-ethylsulfanyl-benzoic acid]
54 | 458 | CSc1cc(-c2cc(NCCn3c(C)cc4c(C)ccc(Cl)c43)ncn2)cc(Cl)c1C(=O)O [compound 150]
8 | 808 | CCOc1cc(-c2cc(NCCn3c(C)cc4c(Cl)ccc(Cl)c43)ncn2)ccc1C(=O)O [compound 151, 4-{6-[2-(4,7-Dichloro-2-methyl-indol-1-yl)-ethylamino]-pyrimidin-4-yl}-2-ethoxy-benzoic acid]
3 | 786 | CCOc1cc(-c2cc(NCCn3c(C)cc4c(F)ccc(Cl)c43)ncn2)ccc1C(=O)O [compound 152, 4-{6-[2-(7-Chloro-4-fluoro-2-methyl-indol-1-yl)-ethylamino]-pyrimidin-4-yl}-2-ethoxy-benzoic acid]
202 | 739 | CCOc1cc(-c2cc(NCCn3c(C)cc4cc(Cl)cc(Cl)c43)ncn2)ccc1C(=O)O [compound 153]
1 | 628 | CCOc1cc(-c2cc(NCCn3c(C)cc4c(F)ccc(F)c43)ncn2)ccc1C(=O)O [compound 154, 4-{6-[2-(4,7-Difluoro-2-methyl-indol-1-yl)-ethylamino]-pyrimidin-4-yl}-2-ethoxy-benzoic acid]
55 | 251 | COc1ccc(Cl)c2c1cc(C)n2CCNc1cc(-c2cc(C)c(C(=O)O)c(Cl)c2)ncn1 [compound 155]
78 | 93 | COc1ccc(F)c2c1cc(C)n2CCNc1cc(-c2cc(C)c(C(=O)O)c(Cl)c2)ncn1 [compound 156]
27 | 590 | CCOc1cc(-c2cc(NCCn3c(C)cc4c(C)ccc(Cl)c43)ncn2)ccc1C(=O)O [compound 157, 4-{6-[2-(7-Chloro-2,4-dimethyl-indol-1-yl)-ethylamino]-pyrimidin-4-yl}-2-ethoxy-benzoic acid]
4 | 75 | CCOc1cc(-c2cc(NCCn3c(C)cc4c(OC)ccc(F)c43)ncn2)ccc1CO [compound 159, (2-Ethoxy-4-{6-[2-(7-fluoro-4-methoxy-2-methyl-indol-1-yl)-ethylamino]-pyrimidin-4-yl}-phenyl)-methanol]
48 | 204 | CCc1cc(-c2cc(NCCn3c(C)cc4c(OC)cccc43)ncn2)cc(Cl)c1C(=O)O [compound 160, 2-Chloro-6-ethyl-4-{6-[2-(4-methoxy-2-methyl-indol-1-yl)-ethylamino]-pyrimidin-4-yl}-benzoic acid]
396 | 993 | COc1ccc(F)c2c1cc(C)n2CCNc1cc(-c2ccc(S(C)(=O)=O)c(F)c2)ncn1 [compound 161]
3 | 4 | CCOc1cc(-c2cc(NCCn3c(C)cc4c(C)c(F)cc(F)c43)ncn2)sc1C(=O)O [compound 162, 5-{6-[2-(5,7-Difluoro-2,4-dimethyl-indol-1-yl)-ethylamino]-pyrimidin-4-yl}-3-ethoxy-thiophene-2-carboxylic acid]
